#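 1) Cells in 96-well plates. 2) Compound, 48 h, 5 concentrations. 3) Linear interpolation between surrounding doses. 4) Unreached endpoint = highest concentration. GI50 is the concentration that inhibits growth by half. Definition used: TGI = concentration required for complete inhibition of growth.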
# Key:
# Assay in all cases: NCI anticancer screen, dose series, 48 h
# A498 renal = system: A498 renal
# A549 NSCLC = system: A549 NSCLC
# ACHN renal = system: ACHN renal
# BT-549 breast = system: BT-549 breast
# CAKI-1 renal = system: CAKI-1 renal
# CCRF-CEM leukemia = system: CCRF-CEM leukemia
# COLO 205 colon = system: COLO 205 colon
# DU-145 prostate = system: DU-145 prostate
# EKVX NSCLC = system: EKVX NSCLC
# HCC-2998 colon = system: HCC-2998 colon
# HCT-116 colon = system: HCT-116 colon
# HCT-15 colon = system: HCT-15 colon
# HOP-62 NSCLC = system: HOP-62 NSCLC
# HOP-92 NSCLC = system: HOP-92 NSCLC
# HS 578T breast = system: HS 578T breast
# HT29 colon = system: HT29 colon
# IGROV1 ovarian = system: IGROV1 ovarian
# K-562 leukemia = system: K-562 leukemia
# KM12 colon = system: KM12 colon
# LOX IMVI melanoma = system: LOX IMVI melanoma
# M14 melanoma = system: M14 melanoma
# MALME-3M melanoma = system: MALME-3M melanoma
# MCF7 breast = system: MCF7 breast
# MDA-MB-231 breast = system: MDA-MB-231 breast
# MDA-MB-435 = system: MDA-MB-435
# MOLT-4 leukemia = system: MOLT-4 leukemia
# NCI-H226 lung = system: NCI-H226 lung
# NCI-H23 lung = system: NCI-H23 lung
# NCI-H460 lung = system: NCI-H460 lung
# NCI-H522 lung = system: NCI-H522 lung
# NCI/ADR-RES ovarian = system: NCI/ADR-RES ovarian
# OVCAR-3 ovarian = system: OVCAR-3 ovarian
# OVCAR-4 ovarian = system: OVCAR-4 ovarian
# OVCAR-5 ovarian = system: OVCAR-5 ovarian
# OVCAR-8 ovarian = system: OVCAR-8 ovarian
# PC-3 prostate = system: PC-3 prostate
# RPMI-8226 leukemia = system: RPMI-8226 leukemia
# SF-268 CNS = system: SF-268 CNS
# SF-295 CNS = system: SF-295 CNS
# SF-539 CNS = system: SF-539 CNS
# SK-MEL-2 melanoma = system: SK-MEL-2 melanoma
# SK-MEL-28 melanoma = system: SK-MEL-28 melanoma
# SK-MEL-5 melanoma = system: SK-MEL-5 melanoma
# SK-OV-3 ovarian = system: SK-OV-3 ovarian
# SN12C renal = system: SN12C renal
# SNB-19 CNS = system: SNB-19 CNS
# SNB-75 CNS = system: SNB-75 CNS
# SW-620 colon = system: SW-620 colon
# T-47D breast = system: T-47D breast
# TK-10 renal = system: TK-10 renal
# U251 CNS = system: U251 CNS
# UACC-257 melanoma = system: UACC-257 melanoma
# UACC-62 melanoma = system: UACC-62 melanoma
# UO-31 renal = system: UO-31 renal
structure (smiles),measurement,setting,value
O=C1OCC(C#Cc2ccccc2)=C1Cl,GI50,A498 renal,12 µM
same,TGI,A498 renal,38 µM
same,GI50,A549 NSCLC,5.02 µM
same,TGI,A549 NSCLC,> 100 µM
same,GI50,ACHN renal,2.49 µM
same,TGI,ACHN renal,6.56 µM
same,GI50,BT-549 breast,7.87 µM
same,TGI,BT-549 breast,33.4 µM
same,GI50,CAKI-1 renal,3.27 µM
same,TGI,CAKI-1 renal,26.7 µM
same,GI50,CCRF-CEM leukemia,0.222 µM
same,TGI,CCRF-CEM leukemia,18.1 µM
same,GI50,COLO 205 colon,2.33 µM
same,TGI,COLO 205 colon,7.79 µM
same,GI50,DU-145 prostate,1.6 µM
same,TGI,DU-145 prostate,11.8 µM
same,GI50,EKVX NSCLC,1.91 µM
same,TGI,EKVX NSCLC,6.17 µM
same,GI50,HCC-2998 colon,3.78 µM
same,TGI,HCC-2998 colon,15.2 µM
same,GI50,HCT-116 colon,0.322 µM
same,TGI,HCT-116 colon,1.38 µM
same,GI50,HCT-15 colon,4.36 µM
same,TGI,HCT-15 colon,15.7 µM
same,GI50,HOP-62 NSCLC,0.388 µM
same,TGI,HOP-62 NSCLC,1.7 µM
same,GI50,HOP-92 NSCLC,2.14 µM
same,TGI,HOP-92 NSCLC,6.84 µM
same,GI50,HS 578T breast,2.46 µM
same,TGI,HS 578T breast,18 µM
same,GI50,HT29 colon,1.05 µM
same,TGI,HT29 colon,12.9 µM
same,GI50,IGROV1 ovarian,1.88 µM
same,TGI,IGROV1 ovarian,> 100 µM
same,GI50,K-562 leukemia,1.86 µM
same,TGI,K-562 leukemia,14.6 µM
same,GI50,KM12 colon,2.65 µM
same,TGI,KM12 colon,12.1 µM
same,GI50,LOX IMVI melanoma,4.31 µM
same,TGI,LOX IMVI melanoma,14.9 µM
same,GI50,M14 melanoma,3.88 µM
same,TGI,M14 melanoma,16.4 µM
same,GI50,MALME-3M melanoma,13.4 µM
same,TGI,MALME-3M melanoma,36.5 µM
same,GI50,MCF7 breast,1.71 µM
same,TGI,MCF7 breast,> 100 µM
same,GI50,MDA-MB-231 breast,1.19 µM
same,TGI,MDA-MB-231 breast,6.39 µM
same,GI50,MDA-MB-435,6.92 µM
same,TGI,MDA-MB-435,42.6 µM
same,GI50,MOLT-4 leukemia,14.3 µM
same,TGI,MOLT-4 leukemia,46.1 µM
same,GI50,NCI-H226 lung,3.11 µM
same,TGI,NCI-H226 lung,7.13 µM
same,GI50,NCI-H23 lung,14 µM
same,TGI,NCI-H23 lung,26.9 µM
same,GI50,NCI-H460 lung,7.59 µM
same,TGI,NCI-H460 lung,> 100 µM
same,GI50,NCI-H522 lung,3.08 µM
same,TGI,NCI-H522 lung,14.7 µM
same,GI50,NCI/ADR-RES ovarian,3.32 µM
same,TGI,NCI/ADR-RES ovarian,13.8 µM
same,GI50,OVCAR-3 ovarian,1.9 µM
same,TGI,OVCAR-3 ovarian,10.8 µM
same,GI50,OVCAR-4 ovarian,15.5 µM
same,TGI,OVCAR-4 ovarian,73.1 µM
same,GI50,OVCAR-5 ovarian,3.59 µM
same,TGI,OVCAR-5 ovarian,15 µM
same,GI50,OVCAR-8 ovarian,3.45 µM
same,TGI,OVCAR-8 ovarian,> 100 µM
same,GI50,PC-3 prostate,1.99 µM
same,TGI,PC-3 prostate,5.67 µM
same,GI50,RPMI-8226 leukemia,1.56 µM
same,TGI,RPMI-8226 leukemia,4.61 µM
same,GI50,SF-268 CNS,6.82 µM
same,TGI,SF-268 CNS,72.7 µM
same,GI50,SF-295 CNS,21.6 µM
same,TGI,SF-295 CNS,> 100 µM
same,GI50,SF-539 CNS,2.52 µM
same,TGI,SF-539 CNS,19.5 µM
same,GI50,SK-MEL-2 melanoma,8.61 µM
same,TGI,SK-MEL-2 melanoma,40.7 µM
same,GI50,SK-MEL-28 melanoma,1.7 µM
same,TGI,SK-MEL-28 melanoma,5.16 µM
same,GI50,SK-MEL-5 melanoma,10 µM
same,TGI,SK-MEL-5 melanoma,23.5 µM
same,GI50,SK-OV-3 ovarian,37.7 µM
same,TGI,SK-OV-3 ovarian,> 100 µM
same,GI50,SN12C renal,2.89 µM
same,TGI,SN12C renal,12.3 µM
same,GI50,SNB-19 CNS,7.49 µM
same,TGI,SNB-19 CNS,67.9 µM
same,GI50,SNB-75 CNS,19.8 µM
same,TGI,SNB-75 CNS,46.2 µM
same,GI50,SW-620 colon,0.83 µM
same,TGI,SW-620 colon,5.07 µM
same,GI50,T-47D breast,12.6 µM
same,TGI,T-47D breast,30.3 µM
same,GI50,TK-10 renal,1.61 µM
same,TGI,TK-10 renal,6.38 µM
same,GI50,U251 CNS,1.59 µM
same,TGI,U251 CNS,3.13 µM
same,GI50,UACC-257 melanoma,4.34 µM
same,TGI,UACC-257 melanoma,40.2 µM
same,GI50,UACC-62 melanoma,6.21 µM
same,TGI,UACC-62 melanoma,18.8 µM
same,GI50,UO-31 renal,2.15 µM
same,TGI,UO-31 renal,> 100 µM

# — PubChem BioAssay (NCI)
